Earlier results in patent US20100130406A1, “GLYCATED MILK AND USES THEREOF” (SOMNACEUTICS LIMITED, priority 2007, published 2010).

What was measured:
[1] = normal (non-glycated) peptide

In the case of `N[C@@H](Cc1c[nH]c2ccccc12)C(=O)O` [1-tryptophane], the “quantity required for a soporific effect” value (humans) is listed as “about 1 g”.

For `COc1ccc2[nH]cc(CCNC(C)=O)c2c1` [Melatonin], the “quantity having a soporific effect for some people” value (humans) is listed as 3 to 5 mg.

In the case of beta-casomorphin-7, the “sedative and anxiolytic effects” value (rats) is listed as “sedative and anxiolytic effects”, the “sedative and anxiolytic effects” value (cockroaches) is listed as “sedative and anxiolytic effects” and the “sedative and anxiolytic effects” value (chickens) is listed as “sedative and anxiolytic effects”. For the same compound, the “half-life in the circulation” value [1] was “about a few minutes”.
